From patent US20230117592A1 (SRI International, priority 2019, published 2023)
Several values for one entry are separate records, joined by “and”; a condition that tells them apart may be missing. Equal values may be shown once.

How the values were obtained:
[1] = target: T1, 5-LOX (Homo sapiens, UniProt P09917); test: 5-LOX fluorescent assay (in vitro lipoxygenase inhibition); assay type: biochemical; conditions: recombinant 5-LOX cell lysate, 20 μM AA, DHR123 fluorescence; several values in a cell = repeat determinations; read-out: IC50 (μM) values for in vitro lipoxygenase inhibition, 5-LOX
T1 sequence (P09917 1-674): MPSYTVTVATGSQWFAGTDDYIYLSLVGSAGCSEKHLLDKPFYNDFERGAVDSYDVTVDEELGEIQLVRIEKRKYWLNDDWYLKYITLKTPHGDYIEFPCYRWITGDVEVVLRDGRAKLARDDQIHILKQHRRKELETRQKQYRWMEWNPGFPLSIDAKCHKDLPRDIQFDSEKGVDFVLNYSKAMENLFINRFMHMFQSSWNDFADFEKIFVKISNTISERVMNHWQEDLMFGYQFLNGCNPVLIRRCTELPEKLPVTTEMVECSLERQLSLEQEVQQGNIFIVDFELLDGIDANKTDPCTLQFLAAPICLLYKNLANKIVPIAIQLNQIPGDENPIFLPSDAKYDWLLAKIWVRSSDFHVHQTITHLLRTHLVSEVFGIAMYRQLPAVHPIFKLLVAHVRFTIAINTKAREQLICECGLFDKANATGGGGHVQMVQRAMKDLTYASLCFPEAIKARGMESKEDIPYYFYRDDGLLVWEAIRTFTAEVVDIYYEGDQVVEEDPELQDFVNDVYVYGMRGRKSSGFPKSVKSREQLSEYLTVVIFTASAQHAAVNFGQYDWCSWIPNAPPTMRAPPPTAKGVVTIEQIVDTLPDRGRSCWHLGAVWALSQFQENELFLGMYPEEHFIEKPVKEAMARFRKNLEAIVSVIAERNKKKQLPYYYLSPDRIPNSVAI
How it was run: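 Recombinant human 5-LOX cell lysate pre-incubated 15 min with inhibitor in 50 mM Tris pH 7.5, 0.1 mM EDTA, 0.3 mM CaCl2. Reaction started with 20 μM arachidonic acid plus 100 μM ATP, with 1 μM DHR123 as fluorescent probe. IC50 from percent inhibition per dose via 4-parameter logistic or sigmoidal dose-response fit.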

[2] = target: T2, 12-LOX (Homo sapiens, UniProt P18054); test: 12-LOX fluorescent assay (in vitro lipoxygenase inhibition); assay type: biochemical; conditions: 100 nM recombinant 12-LOX, 20 μM AA, DHR123 fluorescence; several values in a cell = repeat determinations; read-out: IC50 (μM) values for in vitro lipoxygenase inhibition, 12-LOX
T2 sequence (P18054 1-663): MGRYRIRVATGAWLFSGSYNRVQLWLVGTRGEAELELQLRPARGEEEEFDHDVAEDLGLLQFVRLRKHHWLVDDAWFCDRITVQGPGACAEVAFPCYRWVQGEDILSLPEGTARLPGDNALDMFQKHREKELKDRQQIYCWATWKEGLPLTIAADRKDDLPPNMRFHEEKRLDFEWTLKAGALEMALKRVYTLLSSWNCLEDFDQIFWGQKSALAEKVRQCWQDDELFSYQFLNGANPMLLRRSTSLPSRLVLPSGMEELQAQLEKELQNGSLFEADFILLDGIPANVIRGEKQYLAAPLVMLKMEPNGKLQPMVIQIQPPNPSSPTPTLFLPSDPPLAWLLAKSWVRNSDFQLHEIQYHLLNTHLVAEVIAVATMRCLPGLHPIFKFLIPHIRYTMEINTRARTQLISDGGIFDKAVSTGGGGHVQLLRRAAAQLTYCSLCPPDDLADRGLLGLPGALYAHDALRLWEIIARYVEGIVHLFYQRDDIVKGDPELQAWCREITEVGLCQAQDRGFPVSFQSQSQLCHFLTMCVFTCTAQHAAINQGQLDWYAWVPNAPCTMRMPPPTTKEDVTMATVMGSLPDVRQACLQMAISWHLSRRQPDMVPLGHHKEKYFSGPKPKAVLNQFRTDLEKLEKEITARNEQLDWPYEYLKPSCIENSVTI
How it was run: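 Fluorescent assay in 50 mM Tris pH 7.5, 0.05% Tween-20, with 100 nM recombinant 12-LOX preincubated 15 min with inhibitor. Reaction was started with 20 μM arachidonic acid substrate and 1 μM DHR123. Percent inhibition per dose was fitted by 4-parameter logistic or sigmoidal dose-response for IC50.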

Row | SMILES | IC50 [1] | IC50 [2]
1 | CN(CCn1cncn1)c1cccc(Nc2ccc(F)cc2)c1 [SS20308-0252-01, N^1-(2-(1H-1,2,4-triazol-1-yl)ethyl)-N^3-(4-fluorophenyl)-N^1-methylbenzene-1,3-diamine] | 1.09 µM | 0.26 µM
2 | CN(C)CCCc1c(NCc2ccc(F)cc2)cccc1-c1cccc2c1NCC2 [SS20308-0253-01, 2-(3-(dimethylamino)propyl)-N-(4-fluorobenzyl)-3-(indolin-7-yl)aniline] | 0.31 µM | 0.29 µM
3 | FC1(F)CCC(Nc2ccc(NCC3(Cn4cncn4)COC3)cc2)CC1 [SS20308-0263-01, N^1-((3-((1H-1,2,4-triazol-1-yl)methyl)oxetan-3-yl)methyl)-N^4-(4,4-difluorocyclohexyl) benzene-1,4-diamine] | 0.22 µM and 0.12 µM | 0.06 µM and 0.03 µM
4 | Fc1c(Nc2ccccc2)ccc2c1CCN2CCn1cncn1 [SS20308-0264-01, 1-(2-(1H-1,2,4-triazol-1-yl)ethyl)-4-fluoro-N-phenylindolin-5-amine] | 0.27 µM | 0.05 µM
5 | Cc1cc(Nc2ccc(F)cc2Cl)ccc1NCC1(Cn2cncn2)COC1 [SS20308-0272-01, N1-((3-((1H-1,2,4-triazol-1-yl)methyl)oxetan-3-yl)methyl)-N4-(2-chloro-4-fluorophenyl)-2-methylbenzene-1,4-diamine] | 0.22 µM and 0.28 µM and 0.11 µM and 0.26 µM | 30 nM and 80 nM and 60 nM (2×)
6 | CC1(C)CC(Nc2ccc(NCCn3cncn3)cc2)c2ccccc21 (stereo not drawn) [SS20308-0275-01, N^1-(2-(1H-1,2,4-triazol-1-yl)ethyl)-N^4-(3,3-dimethyl-2,3-dihydro-1H-inden-1-yl)benzene-1,4-diamine] | 0.26 µM and 0.1 µM | 0.05 µM and 0.04 µM
7 | Fc1ccc(Nc2ccc(NCC3(Cn4cncn4)COC3)c(C(F)(F)F)c2)c(Cl)c1 [SS20308-0279-01, N^1-((3-((1H-1,2,4-triazol-1-yl)methyl)oxetan-3-yl)methyl)-N^4-(2-chloro-4-fluorophenyl)-2-(trifluoromethyl)benzene-1,4-diamine] | 0.64 µM | 0.28 µM
8 | Cc1cccc(Nc2ccc(NCC3(Cn4cncn4)COC3)c(C)c2)n1 [SS20308-0289-01, N^1-((3-((1H-1,2,4-triazol-1-yl)methyl)oxetan-3-yl)methyl)-2-methyl-N^4-(6-methylpyridin-2-yl)benzene-1,4-diamine] | 0.25 µM and 0.61 µM | 0.07 µM and 0.15 µM
9 | Fc1ccc(Nc2ccc(NCC3(Cn4cncn4)COC3)c(C(F)(F)F)c2)cc1 [SS20308-0296-01, N^1-((3-((1H-1,2,4-triazol-1-yl)methyl)oxetan-3-yl)methyl)-N^4-(4-fluorophenyl)-2-(trifluoromethyl)benzene-1,4-diamine] | 0.08 µM | 0.06 µM
10 | CN(C)CCCNc1ccc(NC(c2ccccc2)C(F)(F)F)cc1F (stereo not drawn) [SS20308-0302-01, N^1-(3-(dimethylamino)propyl)-2-fluoro-N^4-(2,2,2-trifluoro-1-phenylethyl)benzene-1,4-diamine] | 0.25 µM | 0.21 µM
11 | Cc1cc(Nc2ccc(F)c(Cl)c2)ccc1NCC1(Cn2cncn2)COC1 [SS20308-0307-01, N^1-((3-((1H-1,2,4-triazol-1-yl)methyl)oxetan-3-yl)methyl)-N^4-(3-chloro-4-fluorophenyl)-2-methylbenzene-1,4-diamine] | 0.05 µM and 0.06 µM | 0.02 µM and 0.06 µM
12 | Cc1cc(Nc2ccc(Cl)c(F)c2)ccc1NCC1(Cn2cncn2)COC1 [SS20308-0308-01, N^1-((3-((1H-1,2,4-triazol-1-yl)methyl)oxetan-3-yl)methyl)-N^4-(4-chloro-3-fluorophenyl)-2-methylbenzene-1,4-diamine] | 0.04 µM and 0.03 µM and 0.05 µM and 0.09 µM | 20 nM (2×) and 50 nM and 60 nM
13 | Cc1cc(Nc2ccc(F)cc2Cl)ccc1NCC1(CN2CCOCC2)COC1 [SS20308-0309-01, N^4-(2-chloro-4-fluorophenyl)-2-methyl-N^1-((3-(morpholinomethyl)oxetan-3-yl)methyl) benzene-1,4-diamine] | 0.09 µM and 0.12 µM | 0.04 µM and 0.08 µM
14 | Fc1cc(Nc2ccccc2Cl)ccc1NCC1(Cn2cncn2)COC1 [SS20308-0313-01, N^1-((3-((1H-1,2,4-triazol-1-yl)methyl)oxetan-3-yl)methyl)-N^4-(2-chlorophenyl)-2-fluorobenzene-1,4-diamine] | 0.35 µM | 0.11 µM
15 | FC(F)(F)C(Nc1ccc(NCCCN2CCOCC2)c(C2CCOCC2)c1)c1ccccc1 (stereo not drawn) [SS20308-0315-01, N^1-(3-morpholinopropyl)-2-(tetrahydro-2H-pyran-4-yl)-N^4-(2,2,2-trifluoro-1-phenylethyl)benzene-1,4-diamine] | 0.07 µM | 0.06 µM
16 | Fc1ccc(Nc2ccc(NCCCN3CCOCC3)c(C(F)(F)F)c2)cc1 [SS20308-0316-01, N^4-(4-fluorophenyl)-N^1-(3-morpholinopropyl)-2-(trifluoromethyl)benzene-1,4-diamine] | 0.07 µM | 0.03 µM
17 | FC(F)(F)c1cc(NC2(c3ccccc3)COC2)ccc1NCCN1CCOCC1 [SS20308-0317-01, N^1-(2-morpholinoethyl)-N^4-(3-phenyloxetan-3-yl)-2-(trifluoromethyl)benzene-1,4-diamine] | 0.57 µM | 0.32 µM
18 | Fc1ccc(Nc2ccc(NCC3(Cn4cncn4)COC3)c(OC(F)(F)F)c2)cc1 [SS20308-0319-01, N^1-((3-((1H-1,2,4-triazol-1-yl)methyl)oxetan-3-yl)methyl)-N^4-(4-fluorophenyl)-2-(trifluoromethoxy)benzene-1,4-diamine] | 0.15 µM | 0.05 µM
19 | Fc1ccc(Nc2ccc(NCC3(CN4CCCC4)COC3)c(C(F)(F)F)c2)cc1 [SS20308-0320-01, N^4-(4-fluorophenyl)-N^1-((3-(pyrrolidin-1-ylmethyl)oxetan-3-yl)methyl)-2-(trifluoromethyl)benzene-1,4-diamine] | 0.06 µM | 0.08 µM
20 | FC(F)(F)c1cc(Nc2ccc(Cl)cc2)ccc1NCC1(Cn2cncn2)COC1 [SS20308-0322-01, N^1-((3-((1H-1,2,4-triazol-1-yl)methyl)oxetan-3-yl)methyl)-N^4-(4-chlorophenyl)-2-(trifluoromethyl)benzene-1,4-diamine] | 0.05 µM | 0.05 µM
21 | Cc1cc(Nc2ccc(Cl)c(F)c2)ccc1NCC1(CN2CCOCC2)COC1 [SS20308-0323-01, N^4-(4-chloro-3-fluorophenyl)-2-methyl-N^1-((3-(morpholinomethyl)oxetan-3-yl)methyl) benzene-1,4-diamine] | 0.05 µM | 0.02 µM
22 | Cc1cc(Nc2ccc(Cl)c(F)c2)ccc1NCC1(CN2CCCC2)COC1 [SS20308-0324-01, N^4-(4-chloro-3-fluorophenyl)-2-methyl-N^1-((3-(pyrrolidin-1-ylmethyl)oxetan-3-yl)methyl)benzene-1,4-diamine] | 0.15 µM and 0.44 µM | 0.03 µM
23 | FC(F)(F)C(Nc1ccc(NCCCN2CCOCC2)c(C2CCCCC2)c1)c1ccccc1 (stereo not drawn) [SS20308-0325-01, 2-cyclohexyl-N^1-(3-morpholinopropyl)-N^4-(2,2,2-trifluoro-1-phenylethyl)benzene-1,4-diamine] | 0.04 µM | 0.03 µM
24 | Cc1cc(Nc2ccc(Cl)c(F)c2)ccc1NCC1(Cn2cccn2)COC1 [SS20308-0327-01, N1-((3-((1H-pyrazol-1-yl)methyl)oxetan-3-yl)methyl)-N4-(4-chloro-3-fluorophenyl)-2-methylbenzene-1,4-diamine] | 0.07 µM | 0.04 µM
